Data: patent US6777389B1, “Cosmetic or dermatological use of 7-hydroxylated steroids in combination with elastin derived peptides” (Connective Tissue Imagineering LLC, priority 1998, dated 2004)

Legend:
[1] = In-vitro oxygen radical assay with luminol and hydrogen peroxide (Example 2); type: biochemical; details: luminol pre-incubated with compound at 100 μg/ml
Experimental: The ability of a compound to scavenge free radicals implicates it as an antioxidizing agent that could help to reduce the natural oxidizing effects of aging. In a first test of whether DHEA or it derivatives have the ability to capture free radicals, an in-vitro oxygen radical assay was devised, The assay was run in quadruplicate to perfect the concentrations of controls as well as test the diluents (phosphate buffered saline (PBS) and DMSO) in which the DHEA and its derivatives were dissolved. The positive controls used were homocysteine and ascorbic acid (Vitamin C).

collagen content of skin = experiment: Collagen content of neonatal rat skin by hydroxyproline evaluation (Example 3); type: in vivo, neonatal male Sprague-Dawley rats; details: 0.5% in carrier, twice daily, 30 days, five animals per group
Experimental: (§1) Chemical alterations in the skins of neonatal male Sprague-Dawley rats.
(§2) Collagen and elastin contents were measured on dry, defatted, hair-free skin samples. Collagen contents were assessed through hydroxyproline evaluations in hydrolyzed, 0.1N hot sodium hydroxide extracts. Elastin contents were measured by HPLC evaluation of the contents of thermolysin-produced peptides in digests of the hot sodium hydroxide residue. Controls were both shaven and unshaven, the shaven receiving only the carrier twice daily.
(§3) Elastin contents were increased by all the compounds (28% for DHEA, 30% for the 7 hydroxy and the 7 hydroxy-isoandrosterone). In these studies statistical analysis of variance was significant at an alpha level of 0.01. Similar to the histologic observations, these chemistries are reversible. Collagen and elastin contents returned to near normal levels after cessation of treatment for 30 days.

elastin content of skin = experiment: Elastin content of neonatal rat skin by HPLC of thermolysin-produced peptides (Example 3); type: in vivo, neonatal male Sprague-Dawley rats; details: 0.5% in carrier, twice daily, 30 days, five animals per group
Experimental: as §1, §2, §3

thymocytes = experiment: Glucocorticoid-induced apoptosis of thymocytes, flow cytometry with propidium iodide (Example 4); type: cell-based, mouse C57BL/6; details: 6 hours
Experimental: Effects of 3β,7α-dihydroxy-5-androstene-17-one (7α-hydroxy-DHEA) and of 3β,7α-dihydroxy-5α-androstane-17-one (7α-hydroxy-ISOA) on the cellular apoptosis induced by glucocorticoids.
The thymus of a mouse C57BL/6 age four weeks was removed. Culture of the thymocytes was carried out for 6 hours in a RPMI 1640 medium and in the presence or in the absence of the steroid tested. The apoptosis (fragmentation of the DNA) was measured by flow cytometry after marking with propidium iodide. The apoptotic phenomenon was controlled by electrophoresis of the DNA developed by ethidium bromide according to the traditional technique (observation of ladders of 200 pairs of bases).

human keratinocytes [2] = experiment: Viability of human keratinocytes in culture, MTT test (Example 5); type: cell-based
Experimental: Effects of 3β,7α-dihydroxy-5-androstene-17-one (7α-hydroxy-DHEA) on the viability of human keratinocytes in culture.
Human keratinocytes were obtained from surgical items and were cultivated in a monolayer until preconfluence. The 7α-hydroxy-DHEA was administered to these cultures at various concentrations in ethanolic solution (10%), each concentration being tested eight times. Controls were carried out with ethanol alone (10%). After twenty-four hours, the viability of the keratinocytes was measured by testing with MTT (3-(4,5-dimethylthiazol-2-yl)-2,5 diphenyl tetrazolium bromide) where the mitochondrial dehydrogenase succinate converts the MTT into blue crystals of formazan soluble in DMSO (Mosmann, J. Immunol. Methods 65: 55-63, 1983). The cellular viability is calculated according to the formula:
Any value greater than 100 indicates a product that encourages cellular viability.

human fibroblasts = experiment: Proliferation of human fibroblasts in culture, cell count (Example 6); type: cell-based; details: 72 hours of contact, control 190,667 ± 6,766
Experimental: Effects of 3β,7α-dihydroxy-5-androstene-17-one (7α-hydroxy-DHEA) on the proliferation of human fibroblasts in culture.
The cultures of human fibroblasts (person) were seeded on twenty-four site plates at the rate of 50,000 cells per site in a standard culture medium (DMEM, gentamycine, amphotericine B, penicillin, L-glutamine, 10% SVF). The tests were carried out on four series of three sites. After twenty-four hours, the fibroblasts adhered to the support and three series were treated with 7α-hydroxy-DHEA at concentrations of 10^−6 M, 6. 10^−6 M and 10^−7 M. The fourth series only contained the vector (ethanol). The media were renewed daily, and at ninety-six hours (seventy-two hours of test contact with the 7α-hydroxy-DHEA), the fibroblasts were counted on a Malassez cell in the presence of blue trypan.

human keratinocytes [3] = experiment: Anti-radical effect on UVA-irradiated human keratinocyte suspension, lipid peroxide chemiluminescence (Example 7); type: cell-based; details: UVA irradiated 30 minutes, 10^−6 M
Excerpt: The anti-radical effects of 3β,7α-dihydroxy-5-androstene-17-one (7α-hydroxy-DHEA) on a suspension of human keratinocytes.
Keratinocytes from a healthy donor were cultivated to the subconfluent stage in a specific medium (KGM) for the proliferation of keratinocytes. The suspensions obtained were split up, in triplicate, into four series, of which three were irradiated for thirty minutes with a lamp […] UVA so as to speed up the production of free radicals. Among the three irradiated series, one contained Vitamins C and E (0.7%) and was used as a protection reference, one contained 7α-hydroxy-DHEA at 10^−6 M and the last served as a control. Table D below reports on the measurement of the anti-radical effects.
The free radicals produced generate lipoid peroxides which are measured by chemiluminescence (Belghmi et al. J Biolum. Chemilum. 2: 113-119, 1982). The effectiveness of the 7α-hydroxy-DHEA was calculated on the basis of non-irradiated controls and the protection reference.

[4] = tested on: elastin content of the skin; experiment: Elastin content of rat skin after 30 days of topical treatment (FIG. 1); type: in vivo, Sprague-Dawley male rat; details: topical 5% concentration of DHEA, similar time period, three animals
Excerpt: In FIG. 1, S CONTR represents the Shaven Control and US CONTR represents the Unshaven Control. FIG. 1 illustrates that the present invention has the advantageous qualities of enhancing the softness or elasticity of the skin by increasing the endogenous production of elastin in the skin. The present invention is also directed to a method of improving the texture of skin, specifically the physical appearance of the skin by improving the endogenous production of elastin. The method of the present invention employs any of a number of known administrative routes such as oral, IV, subcutaneous, transcutaneous, and topical administration. […]
It is preferable that the topical administration of the composition of the present invention occur repeatedly over a predetermined time period, preferably in the range of about one week to about one month. […] Testing illustrated that the endogenous elastin (measured by microgram (μg) Elastin per milligram (mg) Skin Fat Free Dry weight) of each of the rats to which the administration was applied doubled over that of a control sample and to a sample which was treated with a 5% concentration of DHEA over a similar time period. […] The data of FIG. 1 are significant at an alpha level less than 0.001 as determined by analysis of variance. […]

rat skin dermal layer = experiment: Histologic examination of H&E stained rat skin cross sections (Example 1); type: in vivo
Excerpt: 7 hydroxy DHEA and 7 hydroxy isoandrosterone treated rat skin.
Upon histologic examination of hematoxylin and eosin (H&E) stained rat skin cross sections, a striking physical change was noted. […] This finding was consistent and most pronounced when the parent compound (DHEA) was used on young, healthy rats. However, it also occurred in replicate experiments when the derivatives were used. […] The latter two findings support the toxicologic studies, done concomitantly, which found no significant toxicity when the compounds were used at 0.5% concentration in a suitable carrier applied twice daily (12 hour intervals) for 30 days. […] A subset of experimental animals within each treatment group were left untreated for 30 days. Upon examination, treated skin sections were indistinguishable from the untreated.

[5] = steroid 10^−5 M with Dexamethasone 10^−5 M
[6] = steroid 10^−6 M with Dexamethasone 10^−6 M

For C[C@]12CC[C@H](O)C[C@@H]1C[C@@H](O)[C@@H]1[C@@H]2CC[C@]2(C)C(=O)CC[C@@H]12 [7α-hydroxy-ISOA, 3β,7α-dihydroxy-5α-androstane-17-one], the “reduction of light emission from luminol” value [1] was 15%, the collagen increase (collagen content of skin) was 24% and the elastin content increase (elastin content of skin) was 30%. The Apoptotic cells (thymocytes; [5]) was 46.3% and the Apoptotic cells (thymocytes; [6]) was 72.0%.

For C[C@]12CC[C@H](O)CC1=C[C@@H](O)[C@@H]1[C@@H]2CC[C@]2(C)C(=O)CC[C@@H]12 [7α-hydroxy-DHEA, 3β,7α-dihydroxy-5-androstene-17-one], the “reduction of light emission from luminol” value [1] was “did not cause any reduction”, the collagen increase (collagen content of skin) was 24% and the elastin content increase (elastin content of skin) was 30%. The Apoptotic cells (thymocytes; [5]) was 48.6%, the Apoptotic cells (thymocytes; [6]) was 58.8% and the “Viability of the keratinocytes” value (human keratinocytes [2]; 5 · 10^−5 M, 24 hours, control = 100) was 111 ± 7%. For the same compound, the “Viability of the keratinocytes” value (human keratinocytes [2]; 5 · 10^−6 M, 24 hours, control = 100) was 147 ± 9%, the “Viability of the keratinocytes” value (human keratinocytes [2]; 5 · 10^−7 M, 24 hours, control = 100) was 139 ± 3% and the cytotoxicity (human keratinocytes [2]; 10^−4 M to 10^−8 M) was “no cytotoxicity was observed”. The “Viability of the keratinocytes” value (human keratinocytes [2]; 10^−4 M, 24 hours, control = 100) was 124 ± 10%, the “Viability of the keratinocytes” value (human keratinocytes [2]; 10^−5 M, 24 hours, control = 100) was 119 ± 7% and the “Viability of the keratinocytes” value (human keratinocytes [2]; 10^−6 M, 24 hours, control = 100) was 154 ± 6%. The “Viability of the keratinocytes” value (human keratinocytes [2]; 10^−7 M, 24 hours, control = 100) was 147 ± 5%, the “Viability of the keratinocytes” value (human keratinocytes [2]; 10^−8 M, 24 hours, control = 100) was 127 ± 3% and the “effect on viability of human keratinocytes” value (human keratinocytes [2]; concentrations between 10^−4 M and 10^−8 M) was “significantly increases the viability”. The “Number of Fibroblasts” value (human fibroblasts; 5 · 10^−6 M) was 258,667 ± 3,351, the “Number of Fibroblasts” value (human fibroblasts; 10^−6 M) was 268,000 ± 27,154 and the “Number of Fibroblasts” value (human fibroblasts; 10^−7 M) was 230,667 ± 8,511. For the same compound, the Effectiveness (human keratinocytes [3]; calculated from non-irradiated controls and protection reference) was 90% and the Chemiluminescence (human keratinocytes [3]; irradiated controls 427,750 ± 137,322) was 44,164 ± 13,303.

With C[C@]12CC[C@H](O)CC1=CC[C@@H]1[C@@H]2CC[C@]2(C)C(=O)CC[C@@H]12 [DHEA, 3β-hydroxy-5-androstene-17-one, reference compound] the “endogenous elastin (mean)” value [4] was 1.753 microgram (μg) Elastin per milligram (mg) Skin Fat Free Dry weight, the “thickness of the dermal layer of skin” value (rat skin dermal layer; 0.5% in carrier, twice daily, 30 days, vs shaven and unshaven untreated controls) was “thickened to nearly twice that of the untreated controls” and the “reversibility of dermal thickening” value (rat skin dermal layer; animals left untreated for 30 days after treatment) was “completely reversible”. For the same compound, the “reduction of light emission from luminol” value [1] was 20%, the collagen decrease (collagen content of skin) was 16% and the elastin content increase (elastin content of skin) was 28%. For the same compound, the Apoptotic cells (thymocytes; [5]) was 51.4%, the Apoptotic cells (thymocytes; [6]) was 39.0% and the “Viability of the keratinocytes” value (human keratinocytes [2]; other comparative tests, concentration not given) was 100±5.
